The target in this test is T1, deaminase TM0936 (Thermotoga maritima, UniProt Q9X034).
T1 construct: polyhistidine; made in house; host or cells: bacteria
T1 sequence (Q9X034 1-406): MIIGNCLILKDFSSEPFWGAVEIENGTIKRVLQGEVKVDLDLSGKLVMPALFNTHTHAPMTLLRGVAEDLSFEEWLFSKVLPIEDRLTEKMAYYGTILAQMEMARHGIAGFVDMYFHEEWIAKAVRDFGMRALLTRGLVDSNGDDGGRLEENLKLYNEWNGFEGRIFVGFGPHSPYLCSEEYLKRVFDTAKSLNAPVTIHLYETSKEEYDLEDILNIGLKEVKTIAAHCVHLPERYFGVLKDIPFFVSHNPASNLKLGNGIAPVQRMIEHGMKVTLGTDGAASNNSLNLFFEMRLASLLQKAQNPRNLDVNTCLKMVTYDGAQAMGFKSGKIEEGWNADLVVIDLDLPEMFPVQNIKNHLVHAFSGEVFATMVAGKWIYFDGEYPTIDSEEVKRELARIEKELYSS
Briefly: Deamination by coupling enzyme TM0936. The format is biochemical. The method, then:
FIG. 9A-9D. Sinefungin is a positive control compatible with the 1-Step EZ-MTase assay. (A) MTAN-based assays catabolize the methyltransferase inhibitor sinefungin (SIN). […] (C) pH-dependence of the reaction between sinefungin and TM0936. […] (D) Inhibition of the sarcosine/dimethylglycine methyltransferase by sinefungin. […] The initial methyltransfer rates were recorded at 263 nm. Further analysis provided the inhibition constant Ki (1.8±0.4 μM).

“Also recorded” adds a separate entry of the source.

In the case of `C[S+](CC[C@H](N)C(=O)O)C[C@H]1O[C@@H](n2cnc3c(N)ncnc32)[C@H](O)[C@@H]1O` (stereo partly drawn) [SAM, S-adenosyl-L-methionine], the “reactivity as TM0936 substrate” value is “unable to catabolize; also recorded: inability to catabolize”.
